Results from patent US20050227994A1, “Decomposition inhibitor for extracellular matrix of cartilage” (Shionogi & Co., Ltd., priority 2002, published 2005).

Target: T1, MMP-13 (Homo sapiens, UniProt P45452)
T1 construct: catalytic domain (^104Tyr˜^267Gly) was amplified with RT-PCR; His-tag; enterokinase digestion-site; made in house
Assay: Assay for inhibitory activities on MMP-13
Type: biochemical
Settings: catalytic domain, substrate MOCAc-Pro-Leu-Gly-Leu-A2Pr(DNP)-Ala-Arg-NH2; read-out: MMP-13 (IC50μM)
Procedure: In regard to MMP-13, mRNA was prepared from carcinoma cell SW1353 derived from human cartilage stimulate by IL-1, TNF and catalytic domain (^[…]) was amplified with RT-PCR. This was cloned in Escherichia. coli expression vector […] inserted with His-tag sequence and enterokinase digestion-site, induced and expressed by IPTG (Isopropyl-β-D-thiogalactopyranoside) and expressed in a insoluble fraction. Isolation of MMP-13 from an insoluble fraction was carried out by dissolving in modifier (6M urea) by a usual method and purification with metal chelate chromatography (Ni […] Sepharose). […] The enzymatic activity on MMP was analyzed by the method described in “C. Graham Knight, Frances Willenbrock and Gillian Murphy: A novel coumarin-labelled peptide for sensitive continuous assays of the matrix metalloproteinases: […] The substrate: MOCAc-[…] was purchased from Peptide Institute, Inc., Osaka, Japan.

Row | SMILES | IC50 [µM]
1 | CCC(C)[C@H](NS(=O)(=O)c1ccc(-c2ncc(-c3ccccc3)s2)cc1)C(=O)O (stereo partly drawn) [Compound A-1] | 0.012
2 | CCC(C)[C@H](NS(=O)(=O)c1ccc(-c2ncc(-c3ccc(OC)cc3)s2)cc1)C(=O)O (stereo partly drawn) [Compound A-2] | 0.0013
3 | COc1ccc(-c2cnc(-c3ccc(S(=O)(=O)N[C@H](CCSC)C(=O)O)cc3)s2)cc1 [Compound A-3] | 0.0023
4 | COc1ccc(-c2cnc(-c3ccc(S(=O)(=O)N[C@H](CCC(=O)O)C(=O)O)cc3)s2)cc1 [Compound A-4] | 0.0024
5 | CC(C)[C@H](NS(=O)(=O)c1ccc(-c2ncc(-c3ccc(Br)cc3)s2)cc1)C(=O)O [Compound A-5] | 0.002
6 | O=C(O)[C@@H](Cc1ccccc1)NS(=O)(=O)c1ccc(-c2ncc(-c3ccc(Br)cc3)s2)cc1 [Compound A-6] | 0.0029
7 | O=C(O)[C@H](NS(=O)(=O)c1ccc(-c2ncc(-c3ccc(Br)cc3)s2)cc1)c1ccccc1 [Compound A-7] | 0.0111
8 | CSCC[C@@H](NS(=O)(=O)c1ccc(-c2ncc(-c3ccc(Br)cc3)s2)cc1)C(=O)O [Compound A-8] | 0.0038
9 | CC(C)C[C@H](NS(=O)(=O)c1ccc(-c2ncc(-c3ccc(Cl)cc3)s2)cc1)C(=O)O [Compound A-9] | 0.0065
10 | O=C(O)[C@@H](NS(=O)(=O)c1ccc(-c2ncc(-c3ccc(Cl)cc3)s2)cc1)c1ccccc1 [Compound A-10] | 0.0246
11 | CC(C)C[C@H](NS(=O)(=O)c1ccc(-c2ncc(-c3ccc(F)cc3)s2)cc1)C(=O)O [Compound A-11] | 0.0114
12 | C[C@@H](NS(=O)(=O)c1ccc(-c2ncc(-c3ccc4ccccc4c3)s2)cc1)C(=O)O [Compound A-12] | 0.012
13 | C[C@H](NS(=O)(=O)c1ccc(-c2ncc(-c3ccc4ccccc4c3)s2)cc1)C(=O)O [Compound A-13] | 0.019
14 | O=C(O)[C@@H](Cc1c[nH]c2ccccc12)NS(=O)(=O)c1ccc(-c2ncc(-c3ccc(F)c(F)c3)s2)cc1 [Compound A-14] | 0.0061
15 | CSCC[C@@H](NS(=O)(=O)c1ccc(-c2ncc(-c3ccc(Cl)c(Cl)c3)s2)cc1)C(=O)O [Compound A-15] | 0.0135
16 | O=C(O)C[C@@H](NS(=O)(=O)c1ccc(-c2ncc(-c3ccc(Cl)c(Cl)c3)s2)cc1)C(=O)O [Compound A-16] | 0.0154
17 | C[C@@H](NS(=O)(=O)c1ccc(-c2ncc(-c3ccc4c(c3)OCO4)s2)cc1)C(=O)O [Compound A-17] | 0.0065
18 | CC(C)[C@@H](NS(=O)(=O)c1ccc(-c2ncc(-c3ccc4c(c3)OCO4)s2)cc1)C(=O)O [Compound A-18] | 0.0052
19 | CSCC[C@@H](NS(=O)(=O)c1ccc(-c2ncc(-c3ccc4c(c3)OCO4)s2)cc1)C(=O)O [Compound A-19] | 0.0092
20 | O=C(O)C[C@@H](NS(=O)(=O)c1ccc(-c2ncc(-c3ccc4c(c3)OCO4)s2)cc1)C(=O)O [Compound A-20] | 0.0183
21 | CC(C)C[C@@H](NS(=O)(=O)c1ccc(-c2ncc(-c3ccc(Cl)c(Cl)c3)s2)cc1)C(=O)O [Compound A-24] | 0.0482
22 | CSc1ccc(-c2cnc(-c3ccc(S(=O)(=O)N[C@@H](C(=O)O)C(C)C)cc3)s2)cc1 [Compound A-25] | 0.00033
23 | CSc1ccc(-c2cnc(-c3ccc(S(=O)(=O)N[C@H](C(=O)O)C(C)C)cc3)s2)cc1 [Compound A-26] | 0.00045
24 | CSc1ccc(-c2cnc(-c3ccc(S(=O)(=O)N[C@@H](C)C(=O)O)cc3)s2)cc1 [Compound A-27] | 0.001
25 | COc1ccc(-c2cnc(-c3ccc(S(=O)(=O)N[C@H](CCC(=O)O)C(=O)O)cc3)o2)cc1 [Compound B-1] | 0.0199
26 | C[C@H](NS(=O)(=O)c1ccc(-c2ncc(-c3ccc4ccccc4c3)o2)cc1)C(=O)O [Compound B-2] | 0.763
27 | O=C(O)[C@@H](Cc1ccccc1)NS(=O)(=O)c1ccc(-c2ncc(-c3ccc(Cl)cc3)o2)cc1 [Compound B-3] | 0.0443
28 | O=C(O)[C@@H](Cc1ccccc1)NS(=O)(=O)c1ccc(-c2ncc(-c3ccc(Cl)c(Cl)c3)o2)cc1 [Compound B-5] | 0.0169

Next, values leading:

Row | IC50 [µM] | SMILES
29 | 0.01 | CCc1ccc(-c2nc(-c3ccc(S(=O)(=O)N[C@@H](C(=O)O)C(C)C)cc3)no2)cc1 [Compound C-1]
30 | 0.027 | CCc1ccc(-c2nc(-c3ccc(S(=O)(=O)N[C@H](Cc4ccccc4)C(=O)O)cc3)no2)cc1 [Compound C-2]
31 | 0.0113 | CC(C)c1ccc(-c2nc(-c3ccc(S(=O)(=O)N[C@H](C)C(=O)O)cc3)no2)cc1 [Compound C-3]
32 | 0.0057 | CC(C)c1ccc(-c2nc(-c3ccc(S(=O)(=O)N[C@@H](C(=O)O)C(C)C)cc3)no2)cc1 [Compound C-4]
33 | 0.018 | CSCC[C@@H](NS(=O)(=O)c1ccc(-c2noc(-c3ccc(C(C)C)cc3)n2)cc1)C(=O)O [Compound C-6]
34 | 0.0196 | CC(C)c1ccc(-c2nc(-c3ccc(S(=O)(=O)N[C@H](CC(=O)O)C(=O)O)cc3)no2)cc1 [Compound C-7]
35 | 0.049 | O=C(O)[C@H](Cc1ccccc1)NS(=O)(=O)c1ccc(-c2noc(-c3ccc4c(c3)OCO4)n2)cc1 [Compound C-8]
36 | > 10 | O=C(O)[C@H](Cc1ccccc1)NS(=O)(=O)c1ccc(-c2noc(-c3ccc4cc(Br)ccc4c3)n2)cc1 [Compound C-9]
37 | 0.0174 | CSc1ccc(-c2nc(-c3ccc(S(=O)(=O)N[C@H](Cc4ccccc4)C(=O)O)cc3)no2)cc1 [Compound C-10]
38 | 0.028 | CCCCc1ccc(-c2noc(-c3ccc(S(=O)(=O)N[C@@H](C(=O)O)C(C)C)cc3)n2)cc1 [Compound D-1]
39 | 0.141 | O=C(O)[C@@H](Cc1ccccc1)NS(=O)(=O)c1ccc(-c2nc(-c3ccc(Cl)cc3)no2)cc1 [Compound D-2]
40 | 0.1 | CCCCc1ccc(-c2noc(-c3ccc(S(=O)(=O)N[C@H](Cc4ccccc4)C(=O)O)cc3)n2)cc1 [Compound D-3]
41 | 0.167 | O=C(O)[C@@H](Cc1ccccc1)NS(=O)(=O)c1ccc(-c2nc(-c3ccc(C(F)(F)F)cc3)no2)cc1 [Compound D-4]
42 | 1.01 | O=C(O)[C@@H](Cc1ccccc1)NS(=O)(=O)c1ccc(-c2nc(-c3ccc4ccccc4c3)no2)cc1 [Compound D-5]
43 | 0.764 | O=C(O)[C@@H](Cc1ccccc1)NS(=O)(=O)c1ccc(-c2nc(-c3ccc(Cl)c(Cl)c3)no2)cc1 [Compound D-6]
44 | 0.4 | CC(C)C(NS(=O)(=O)c1ccc(-c2ccccc2)cc1)C(=O)O (stereo not drawn) [Compound E-1]
45 | 0.00877 | Cc1ccc(-c2ccc(S(=O)(=O)N[C@H](Cc3c[nH]c4ccccc34)C(=O)O)cc2)cc1 [Compound E-2]
46 | 0.083 | CC(C)C(NS(=O)(=O)c1ccc(-c2ccc(Cl)cc2)cc1)C(=O)O (stereo not drawn) [Compound E-3]
47 | 0.0209 | CSc1ccc(-c2ccc(S(=O)(=O)NC(C)C(=O)O)cc2)cc1 (stereo not drawn) [Compound E-4]
48 | 0.0022 | CCC(C)C(NS(=O)(=O)c1ccc(-c2ccc(SC)cc2)cc1)C(=O)O (stereo not drawn) [Compound E-5]
49 | 0.0026 | CSc1ccc(-c2ccc(S(=O)(=O)NC(Cc3ccccc3)C(=O)O)cc2)cc1 (stereo not drawn) [Compound E-6]

Row | IC50 [µM] | SMILES
50 | 0.0197 | CSCC[C@@H](NS(=O)(=O)c1ccc(-c2ccc(SC)cc2)cc1)C(=O)O [Compound E-7]
51 | 0.0105 | CSCC[C@H](NS(=O)(=O)c1ccc(-c2ccc(SC)cc2)cc1)C(=O)O [Compound E-8]
52 | 0.0132 | CSc1ccc(-c2ccc(S(=O)(=O)N[C@H](CC(=O)O)C(=O)O)cc2)cc1 [Compound E-9]
53 | 0.0236 | CSc1ccc(-c2ccc(S(=O)(=O)N[C@H](CCC(=O)O)C(=O)O)cc2)cc1 [Compound E-10]
54 | 0.0091 | CSc1ccc(-c2ccc(S(=O)(=O)N[C@@H](CCC(=O)O)C(=O)O)cc2)cc1 [Compound E-11]
55 | 0.0165 | CSc1ccc(-c2ccc(S(=O)(=O)N[C@H](CO)C(=O)O)cc2)cc1 [Compound E-12]
56 | 0.0254 | CSc1ccc(-c2ccc(S(=O)(=O)NC(C(=O)O)c3cccs3)cc2)cc1 (stereo not drawn) [Compound E-13]
57 | 0.0135 | CCSc1ccc(-c2ccc(S(=O)(=O)NC(C)C(=O)O)cc2)cc1 (stereo not drawn) [Compound E-14]
58 | 0.0195 | CCSc1ccc(-c2ccc(S(=O)(=O)NC(C(=O)O)C(C)C)cc2)cc1 (stereo not drawn) [Compound E-15]
59 | 0.0142 | CCSc1ccc(-c2ccc(S(=O)(=O)NC(Cc3ccccc3)C(=O)O)cc2)cc1 (stereo not drawn) [Compound E-16]
60 | 0.0067 | CCSc1ccc(-c2ccc(S(=O)(=O)NC(C(=O)O)C(C)CC)cc2)cc1 (stereo not drawn) [Compound E-17]
61 | 0.0204 | CCc1ccc(-c2ccc(S(=O)(=O)NC(C(=O)O)C(C)C)cc2)cc1 (stereo not drawn) [Compound E-18]
62 | 0.0122 | CCOc1ccc(-c2ccc(S(=O)(=O)NC(C(=O)O)C(C)C)cc2)cc1 (stereo not drawn) [Compound E-19]
63 | 0.0141 | CC(C)C(NS(=O)(=O)c1ccc(-c2ccc(OC(F)(F)F)cc2)cc1)C(=O)O (stereo not drawn) [Compound E-20]
64 | 0.002 | CSc1ccc(-c2ccc(-c3ccc(S(=O)(=O)N[C@@H](C(=O)O)C(C)C)cc3)cc2)cc1 [Compound E-21]
65 | 0.0139 | CC(C)[C@@H](NS(=O)(=O)c1ccc(-c2ccc(-c3ccc4ccccc4c3)cc2)cc1)C(=O)O [Compound E-22]
66 | 1.06 | O=C(O)[C@@H](Cc1ccc(-c2ccccc2)cc1)NS(=O)(=O)c1ccc(-c2ccccc2)cc1 [Compound E-23]
67 | 0.024 | CC(C)[C@@H](NS(=O)(=O)c1ccc(-c2ccc(-c3ccccc3)cc2)cc1)C(=O)O [Compound E-24]
68 | 0.39 | CC(C)(C)c1ccc(-c2ccc(S(=O)(=O)NC(Cc3ccccc3)C(=O)O)cc2)cc1 (stereo not drawn) [Compound E-25]
69 | 0.21 | O=C(O)C(Cc1ccccc1)NS(=O)(=O)c1ccc(-c2ccc(F)cc2)cc1 (stereo not drawn) [Compound E-26]
